# Columns and labels:
# [1] = target: rat nNOS (Rattus norvegicus, UniProt P29476)
# [2] = target: human nNOS (Homo sapiens, UniProt P29475); conditions: ratio of Ki values versus 17
SMILES,"Loss in potency as compared to 17, rat nNOS [1] [fold]","Lower potency than 17, human nNOS [2] [fold]"
"COc1cc(N)nc(CCc2cc(CCN(C)C)cc(F)c2F)c1.Cl.Cl [Compound 18, 6-(5-(2-(Dimethylamino)ethyl)-2,3-difluorophenethyl)-4-methoxypyridin-2-amine dihydrochloride]",5,
"Cc1cc(CCc2cc(CCN(C)C)cc(F)c2F)nc(N)n1.Cl.Cl [Compound 19, 4-(5-(2-(Dimethylamino)ethyl)-2,3-difluorophenethyl)-6-methylpyrimidin-2-amine dihydrochloride]",438,
"CN(C)CCc1cc(F)c(F)c(CCc2cc(C(F)F)cc(N)n2)c1.Cl.Cl [Compound 23, 4-(Difluoromethyl)-6-(5-(2-(dimethylamino)ethyl)-2,3-difluorophenethyl)pyridin-2-amine dihydrochloride]",,14

# Source: PMC10824152 (Journal of medicinal chemistry, 2023)
